# From PMC6479817, “In Vitro and In Situ Characterization of the Intestinal Absorption of Capilliposide B and Capilliposide C from Lysimachia capillipes Hemsl” (Molecules, 2019)
# Key:
# [1] = design: method as in PMID 24313264; settings: cited from earlier work
# [2] = test system: intestinal segment (duodenum, jejunum, ileum); assay type: in vivo; settings: rat; for change of Peff and Ka values at higher drug concentration (80 μg/mL) / change of Peff and Ka values between 20 and 50 μg/mL / increase of Peff with indomethacin / increase of intestinal transport with verapamil / order of Peff and Ka values in three intestinal segments: in vivo
# Method: Male Sprague-Dawley (SD) rats (280 ± 30 g) were supplied by the Laboratory Animal Center, Zhejiang Chinese Medical University (Zhejiang, China). All animals were fasted overnight (12-18 h) with free access to water before experiments. All experiments were performed in accordance with the guidelines for the care and use of animals as established by the Laboratory Animal Centre, Zhejiang Chinese Medical University (Zhejiang, China) (approval number: ACXK20150016). The perfusion experiment was performed as previously reported. In brief, rats were fasted overnight but permitted to drink water freely the day before the experiments. After being anesthetized, the rats were placed on the surface of a thermostatic device and maintained at 37 °C. An incision of approximately 3 cm was made along the midline of the abdominal cavity to expose the contents of the abdomen. […] Then the incision was made at both sides of the segment. The intestinal contents were rinsed with saline preheated at 37 °C, drained with air, and connected to the perfusion system with the catheter. One-hundred […] of pre-prepared perfusate was taken and preheated at 37 °C. The perfusion was started at a circulation speed of 1.0 mL/min for 10 min. […] Samples were collected in glass tubes (2 mL/per) at 10-min intervals for 90 min. […] The rest of the samples were stored at -20 °C for further studies.
# caco-2 cells = assay: MTT colorimetric assay of caco-2 cell viability; assay type: cell-based, human; settings: 24 h; for effect on cell growth (MTT): concentration less than 40 μg/mL; for effect on cell viability (MTT): concentration over 40 μg/mL
# Method: The effects of CAPs on caco-2 cell viability were checked by 3-(4,5-dimethyl-2-thiazolyl)-2,5-diphenyl-2-H-tetrazolium bromide (MTT) colorimetric assay, which is adapted to analyze cell proliferation and drug cytotoxicity. […] In brief, caco-2 cells were seeded at 4 × 10^3 cells/well into 96-well culture plates and were incubated at 37 °C for 24 h before the assay. The cells were treated with different concentrations (0, 10, 20, 40, 80, 120, 160 and 240 μg/mL) of CAPs. After 24 h of incubation, 20 µL of MTT (5 mg/mL) was added to each well and the cells were incubated for another 4 h. After removing the culture medium, 100 µL of dimethyl sulfoxide was added to dissolve the contents in the plate. Then, the absorbance was measured at 570 and 630 nm (reference wavelength) using a microplate reader (Multiskan MK3; Thermo Fisher Scientific, Waltham, MA, USA).
# Figure S2: Capilliposides (CAPs) inhibited the proliferation of caco-2 cells. Caco-2 cells were treated for 24 h with different concentrations (0, 10, 20, 40, 80, 120, 160 and 240 ug/mL) of CAPs. p < 0.05(*), comparison with the group of 0 ug/mL. All the results are expressed as mean ± S.D. (n=3).
# caco-2 cell monolayer = assay: Transport (permeability) across caco-2 cell monolayer, bidirectional, with and without inhibitors; assay type: in vitro ADME, human
# Method: Caco-2 cells were routinely cultured in high glucose Dulbecco’s modified Eagle’s medium (DMEM) containing 10% fetal bovine serum (FBS), 1% nonessential amino acids, and 1% penicillin/streptomycin. Cells were kept at 37 °C in a 90% relative humidity atmosphere containing 5% CO2. Cells were seeded onto transwells purchased from Corning Costar Co. (New York, NY, USA) on 12-well plates for transport studies and uptake studies at 5 × 10^4 cells per insert. Cells were grown for 20 days. […] DMEM was removed and the monolayer was washed with Hank’s Balanced Salt Solution (HBSS). The blank HBSS was replaced by 0.4 mL of HBSS containing 40, 20 and 10 μg/mL of drug on the apical (AP) side and 2.1 mL of HBSS on the basolateral (BL) side. In the AP-BL direction studies, 0.4 mL of HBSS containing 40 μg/mL drug and P-gp inhibitor (53 μg/mL verapamil); MRP2 inhibitor (17.9 μg/mL indomethacin); or the co-inhibitor of P-gp, MRP2 and CYP3A4 (10 μg/mL cyclosporin A) were added to the AP side; 2.1 mL of HBSS was added to the BL side. In the BL-AP direction studies, 0.4 mL of HBSS containing 40 μg/mL drug and different inhibitors were added to the BL side, and 2.1 mL of HBSS was added to AP side. Samples (0.4 mL) were taken from the BL or AP side after 45, 60 and 90 min incubation at 37 °C. An additional 0.4 mL of HBSS was added at the same time. The concentrations of samples were analyzed by LC-MS. […] Linear regression was carried out to obtain the steady-state appearance rate of the drug on the receiver side.
# [3] = Stability in Krebsringer buffer (K-R buffer) at different pH values; assay type: physicochemical; settings: pH 5.0, pH 6.55, pH 7.43
# From the text: The SPIP model was used to further explore the intestinal permeability features of CAPB and CAPC in rats. Firstly, we determined the stability of CAPB and CAPC in the Krebsringer buffer (K-R buffer) across different pH values. […] In other words, CAPB and CAPC were stable in a weakly acidic environment. Because the pH of intestinal juice was close to 6.55, we used a K-R buffer at pH 6.55 as the perfusion solution.
# Figure 4 The characterization of the intestinal permeability of capilliposide B (CAPB) and capilliposide C (CAPC) in single-pass intestinal perfusion (SPIP) model. The stability of CAPB and CAPC were measured at different pH values (pH 5, pH 6.55, and pH 7.34, respectively) (A). The absorption rate constants (ka, s^−1) values (B) and effective permeability (Peff, cm/s) values (C) for CAPB and CAPC at different initial drug concentrations (20 μg/mL, 50 μg/mL, and 80 μg/mL, respectively). p < 0.05 (*) compared with the group at 80 μg/mL. The Ka values (D) and Peff values (E) of CAPB and CAPC obtained from the duodenum, jejunum, and ileum in SPIP models. p < 0.05 (*) compared with the duodenum. All the results are expressed as mean ± S.D. (n = 3).
change of permeability with cyclosporin A [2],change of permeability with ketoconazole vs alone [2],effective permeability (Peff) [2],change of Peff and Ka values at higher drug concentration (80 μg/mL) [2],change of Peff and Ka values between 20 and 50 μg/mL [2],increase of Peff with indomethacin [2],increase of intestinal transport with verapamil [2],order of Peff and Ka values in three intestinal segments [2],Papp (caco-2 cell monolayer),"Papp (BA)/Papp (AB) (efflux ratio, ER) (caco-2 cell monolayer)",Papp at high and medium vs lower concentration (caco-2 cell monolayer),Papp over incubation time (caco-2 cell monolayer),change of permeability in the presence of cyclosporin A (caco-2 cell monolayer),SMILES,bioavailability and tissue exposure after oral administration [1],effect on cell growth (MTT) (caco-2 cells),effect on cell viability (MTT) (caco-2 cells),stability in K-R buffer across pH values [3]
increased slightly,minimal alteration of permeability,less than 0.2 × 10^−4 cm/s,significant decrease,slight increase,2 fold,1.5 fold,followed the same pattern as CAPB,less than 2 × 10^−6 cm/s,1.0-1.5,significant increase in permeability,upward trend over time,only a small increase,"CC1(C)C[C@H](O[C@@H]2O[C@H](CO)[C@@H](O)[C@H](O)[C@H]2O)[C@@]23[C@H](O)C[C@]4(C)[C@@](CC[C@@H]5[C@@]6(C)CC[C@H](O[C@@H]7OC[C@H](O[C@@H]8O[C@H](CO)[C@@H](O)[C@H](O)[C@H]8O[C@@H]8OC[C@@H](O)[C@H](O)[C@H]8O)[C@H](O)[C@H]7O[C@@H]7O[C@H](CO)[C@@H](O)[C@H](O)[C@H]7O)C(C)(C)[C@@H]6CC[C@]54C)(O[C@@H]2O)[C@@H]3C1 [CAPC, capilliposide C]",poor bioavailability and low exposure in tissues,did not inhibit cell growth significantly,significantly decreased cell viability,more stable at pH 5.0 and pH 6.55 than pH 7.43
increased around two-fold,two-fold higher permeability,less than 0.2 × 10^−4 cm/s,significant increase,slight decline,4.2 fold,1.5 fold,duodenum > jejunum > ileum,less than 2 × 10^−6 cm/s,1.0-1.5,significant increase in permeability,upward trend over time,10 fold,"CCCCCC(=O)O[C@H]1CC(C)(C)C[C@@H]2[C@@]13[C@H](O)C[C@]1(C)[C@@]2(CC[C@@H]2[C@@]4(C)CC[C@H](O[C@@H]5OC[C@H](O[C@@H]6O[C@H](CO)[C@@H](O)[C@H](O)[C@H]6O[C@@H]6OC[C@@H](O)[C@H](O)[C@H]6O)[C@H](O)[C@H]5O[C@@H]5O[C@H](CO)[C@@H](O)[C@H](O)[C@H]5O)C(C)(C)[C@@H]4CC[C@]21C)O[C@H]3O [CAPB, capilliposide B]",poor bioavailability and low exposure in tissues,did not inhibit cell growth significantly,significantly decreased cell viability,more stable at pH 5.0 and pH 6.55 than pH 7.43
